Patent US12502379B2, “Ponesimod for avoiding worsening of fatigue-related symptoms in multiple sclerosis patients” (Vanda Pharmaceuticals Inc., priority 2019, dated 2025)

Experiments:
[1] = other S1P receptor modulators, for comparison; cited from earlier work
[2] = system: adult subjects with relapsing MS; test: FSIQ-RMS weekly symptoms score, change from baseline to Week 108; format: in vivo, human; details: FSIQ-RMS weekly symptoms score
Excerpt: In some embodiments, the patient-reported outcome questionnaire is the Fatigue Symptoms and Impact Questionnaire—Relapsing Multiple Sclerosis (FSIQ-RMS) (available from Mapi Research Trust). The FSIQ-RMS is an MS specific 20-item PRO measure that comprises 2 domains: one measuring MS symptoms and one measuring MS-related impacts. See Hudgens S, et al., Development and Validation of the FSIQ-RMS: A New Patient-Reported Questionnaire to Assess Symptoms and Impacts of Fatigue in Relapsing Multiple Sclerosis. Value Health. 2019 April; 22 (4): 453-466. doi: 10.1016/j.jval.2018.11.007. Epub 2019 Feb. 21. PubMed PMID: 30975397. With 7 symptom items and 13 impact items (in 3 impacts subdomains: physical, cognitive and emotional, and coping), the FSIQ-RMS is a comprehensive, valid, and reliable measure of fatigue-related symptoms and impacts in RMS patients. FIG. 2B depicts a conceptual framework for the FSIQ-RMS.
(§1) In some embodiments, the patient-reported outcome questionnaire is the symptom domain of the FSIQ-RMS. The FSIQ-RMS symptom domain (FSIQ-RMS-S) consists of seven items assessing fatigue-related symptoms with a recall period of 24 hours measured on an 11-point numeric rating scale; the standardized symptom domain score ranges from 0 to 100 with a higher score indicating greater fatigue. This domain (i.e., section 1 of the questionnaire) is completed on 7 consecutive days.
The patient-reported outcome questionnaire used for the below Examples is the Fatigue Symptoms and Impact Questionnaire-Relapsing Multiple Sclerosis (FSIQ-RMS). The FSIQ-RMS is an MS specific 20-item PRO measure that comprises 2 domains: one measuring MS symptoms (7 items) and one measuring MS-related impacts (13 items). The 7 symptom items and 13 impact items (in 3 impacts subdomains: physical, cognitive and emotional, and coping) are presented below.
For the MS symptoms domain, the FSIQ-RMS asks about a patient's fatigue-related symptoms of relapsing MS over the past 24 hours while doing routine daily activities (e.g., housework, yard work, shopping, working, etc.) for Items 1-6 or while at rest (e.g., reading a book, watching TV, etc.) for Item 7. Patients are asked to select a response on a scale of Oto 10 that best describes their experience and are asked to not skip any questions, with no answers being right or wrong.
Secondary efficacy variables and testing strategy: Four secondary efficacy endpoints were analyzed as per the statistical testing strategy outlined in FIG. 1. • Change from baseline to Week 108 in fatigue-related symptoms as measured by the symptoms domain of the FSIQ-RMS patient-reported outcome [Fatigue] • Cumulative number of combined unique active lesions from baseline to Week 108 on brain MRI [CUALs] • Time to first 12-week confirmed disability accumulation (CDA) from baseline to EOS on Expanded Disability Status Scale (EDSS) [12-week CDA] • Time to first 24-week CDA from baseline to EOS on EDSS [24-week CDA]
as §1, with “The” for “In some embodiments, the patient-reported outcome questionnaire is the symptom domain of the FSIQ-RMS. The”
FSIQ-RMS was completed during the pre-randomization period, at Visits 6, 7, 10, and 12 (Weeks 12, 24, 60, 84), 14 (EOT), and at unscheduled visits due to relapses (R1, R2, etc.) or other unscheduled visits (U1, U2, etc.) as described below. If applicable, FSIQ-RMS was performed at the corresponding visits in the PTOP.
The completion of the FSIQ-RMS during the pre-randomization period was done as follows: At Visit 1 (Screening), subjects who appear eligible based on the assessments made during this visit (but prior to the results from the laboratory assessments are received) were provided with the electronic device containing the FSIQ-RMS. […]

[3] = ALT increase relative to ULN; format: in vivo, human; details: ponesimod 20 mg arm, teriflunomide 14 mg arm
[4] = 12-lead ECG heart rate on Day 1, change from pre-dose; format: in vivo, human
Description: As per up-titration regimen, the dose of ponesimod on Day 1 is 2 mg.

[5] = Reasons for premature treatment discontinuation; format: in vivo; details: ponesimod 20 mg, teriflunomide 14 mg
Description: A total of 1468 subjects were screened. Of those, 1133 subjects were randomized (567 to ponesimod 20 mg and 566 to teriflunomide 14 mg) across 162 sites in 28 countries, and 1131 subjects received at least one dose of study drug. The disposition of subjects is summarized in Table 1 and a summary of reasons (primary reason) for treatment discontinuation are shown in Table 2. Overall treatment and study discontinuation were balanced across both treatment arms. A total of 6.5% and 2.5% of the subjects discontinued due to AEs or tolerability related reasons in ponesimod 20 mg and teriflunomide 14 mg, respectively, while 1.9% and 4.3% discontinued due to efficacy related reasons. There were 2 deaths reported during the study—both on teriflunomide 14 mg.

[6] = Treatment-emergent adverse events, Safety Set
Description: A prospective, multicenter, randomized, double-blind, active controlled, parallel-group, phase III, superiority study was conducted.
The Safety Set (SAF) included all randomized subjects who received at least one dose of study treatment. Subjects were analyzed based on actual treatment taken, not randomized treatment.

[7] = patients without Gd+T1 lesions at baseline
[8] = Day 1 (ponesimod dose 2 mg per up-titration), Safety Set, N = 565 / 566
[9] = Safety Set, ponesimod 20 mg N = 565, teriflunomide 14 mg N = 566
[10] = ponesimod 20 mg, teriflunomide 14 mg

CCc1cc(/C(C)=N/OCc2ccc(C3CCCCC3)c(C(F)(F)F)c2)ccc1CN1CC(C(=O)O)C1 [siponimod]
ECG HR effect: nadir post-dose [1]: 3 to 4 h

C/C(O)=C(\C#N)C(=O)Nc1ccc(C(F)(F)F)cc1 [Teriflunomide]
Change From Baseline to Week 108: Stable or Improved ([2]; patients with baseline fatigue below the median): about 55%
Change From Baseline to Week 108: Stable or Improved [2, 7]: 57.0%
Change From Baseline to Week 108: Worsened (≥6.3) [2, 7]: 43.0%
Change From Baseline to Week 108: Stable or Improved ([2]; patients without Gd+T1 lesions at baseline, listed as teriflunomide): about 57%
Proportion of subjects who experienced ALT increase >3×ULN [3]: 8.3%
Proportion of subjects who experienced ALT increase >8×ULN [3]: 2.1%
Mean heart rate reduction compared to pre-dose (maximum) ([4]; Day 1, 2-hours post dose, ponesimod arm dose on Day 1 is 2 mg): −1.7 bpm
Subjects with asymptomatic post-dose HR≤40 bpm ([4]; Day 1, all had pre-treatment HR<55 bpm): none
Subjects who discontinued due to AEs or tolerability related reasons [5]: 2.5%
AESI effect on heart rate and rhythm (including hypotension) on Day 1: Subjects with at least one AE [6, 8]: 0.4%
AESI heart rate and rhythm on Day 1, PT: Atrioventricular block first degree [6, 8]: 0 n
AESI heart rate and rhythm on Day 1, PT: Bradycardia [6, 8]: 0 n
AESI heart rate and rhythm on Day 1, PT: Bundle branch block left [6, 8]: 0 n
AESI heart rate and rhythm on Day 1, PT: Bundle branch block right [6, 8]: 0 n
AESI heart rate and rhythm on Day 1, PT: Defect conduction intraventricular [6, 8]: 0 n
AESI heart rate and rhythm on Day 1, PT: Sinus arrhythmia [6, 8]: 0 n
AESI heart rate and rhythm on Day 1, PT: Sinus bradycardia [6, 8]: 0 n
Subject with at least one AE (treatment-emergent) [6, 9]: 88.2%
Subject with at least one AE leading to study drug discontinuation [6, 9]: 6.0%
Subject with at least one Serious AE [6, 9]: 8.1%
TEAEs leading to premature discontinuation of study drug, SOC: Eye disorders [6, 9]: 0 n
TEAEs leading to premature discontinuation of study drug, SOC: Respiratory, thoracic and mediastinal disorders [6, 9]: 0 n
TEAEs leading to premature discontinuation of study drug, SOC: Vascular disorders [6, 9]: 0 n
Treatment-emergent AESI: Hepatobiliary disorders/Liver enzyme abnormality [6, 9]: 14.5%
Treatment-emergent AESI: Hypertension [6, 9]: 9.0%
Treatment-emergent AESI: Pulmonary events [6, 9]: 2.7%
TEAE: ALT increased [6, 10]: 9.4%
TEAE: headache [6, 10]: 12.7%
TEAE: nasopharyngitis [6, 10]: 16.8%
TEAE: upper respiratory tract infection [6, 10]: 10.4%

CCCCCCCCc1ccc(CCC(N)(CO)CO)cc1 [fingolimod]
ECG HR effect: nadir post-dose [1]: ~6 h
